Here are results for 14 molecules from ChEMBL document CHEMBL2396603, “Heterocyclic modification of a novel bicyclo[3.1.0]hexane NPY1 receptor antagonist” (Bioorg Med Chem Lett, 2013).

The term bioavailability denotes the share of a dose that reaches the circulation, judged against a reference dose that is usually intravenous. The solubility is the dissolved amount per volume that the medium holds. A low value points to a poorly soluble substance. Usually IC50 stands for the point on the concentration scale where inhibition reaches its midpoint. A higher IC50 goes with weaker potency in that assay.

In brackets after ≈: the same amount, converted by molar mass. Activity calls are given as the source filed them. No cut-off for these calls is given here. Where only a bound is given, the exact number is not on record here.

Data set [1] in a line: Bioavailability in rat at 10 mg/kg, ip. The settings on record: in vivo. It is filed as ADME, organism-based.
The nature of data set [2]: Oral bioavailability in rat at 20 mg/kg. It is filed as ADME, organism-based. The settings on record: in vivo.
The test system of data set [3] is Rattus norvegicus. Briefly: Antiobesity activity in Sprague-Dawley rat spontaneous nocturnal feeding model assessed as reduction in food intake at 10 to 30 mg/kg, ip administered 1 hr before onset of darkness measured during first hour and first 3 hrs of darkness. It is filed as functional, organism-based.
Data set [4] can be described thus: Drug uptake in rat brain at 10 mg/kg, ip after 15 mins. It is filed as ADME, organism-based. The settings on record: read-out: Drug uptake. Details: dose 10 mg/kg, route intraperitoneal.
The nature of data set [5]: Aqueous solubility of the compound in 40% aqueous trappsol. It is filed as physicochemical.
Data set [6] relates to Rattus norvegicus. Briefly: Antiobesity activity in Sprague-Dawley rat spontaneous nocturnal feeding model assessed as reduction in food intake at 35.6 to 60 mg/kg, po administered 2.5 hrs before onset of darkness measured during first hr. It counts as functional, organism-based.
Data set [7] has as its target T1, Neuropeptide Y receptor type 1 (Homo sapiens, UniProt P25929).
T1 sequence (P25929 whole entry): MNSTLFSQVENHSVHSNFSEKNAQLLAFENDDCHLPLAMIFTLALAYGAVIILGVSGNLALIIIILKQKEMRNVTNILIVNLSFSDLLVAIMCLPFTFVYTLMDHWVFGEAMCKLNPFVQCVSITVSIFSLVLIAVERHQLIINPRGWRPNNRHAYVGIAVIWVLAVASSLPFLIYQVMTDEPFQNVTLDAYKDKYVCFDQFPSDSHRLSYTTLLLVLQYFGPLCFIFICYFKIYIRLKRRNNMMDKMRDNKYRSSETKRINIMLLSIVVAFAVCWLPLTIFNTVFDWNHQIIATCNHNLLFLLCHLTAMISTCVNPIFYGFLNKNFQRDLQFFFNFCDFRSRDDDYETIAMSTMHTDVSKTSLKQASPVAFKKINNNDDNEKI
In words: Displacement of [125I]PYY from NPY1 receptor in human SK-N-MC cells after 1 hr by microbeta scintillation counting analysis. It counts as cell-based.

For `CCOc1cccc(C2(N3CCN(c4ccccn4)CC3)C3CC(C)CC32)c1` (stereo unspecified), the bioavailability in data set [1] is 40%; in data set [2], 53%. The outcome in the data set with Rattus norvegicus [3] and in the data set on Rattus norvegicus [6] was Active. Further, the concentration at 0.25 h in data set [4] was greater than 100 nM. The molecule also gave a solubility in data set [5] greater than 50000 µg/mL. Besides, in data set [7], the IC50 was 0.042 µM. `CCOc1cccc(C2(N3CCN(c4cccnc4)CC3)C3CC(C)CC32)c1` (stereo unspecified) came in with an IC50 in data set [7] of 0.892 µM. Still for that read-out and setting: with `CCOc1cccc(C2(N3CCN(c4ccccc4N)CC3)C3CC(C)CC32)c1` (stereo unspecified) the figure was greater than 10 µM; with `CCOc1cccc(C2(N3CCN(c4cnccn4)CC3)C3CC(C)CC32)c1` (stereo unspecified), 0.265 µM; with `CCOc1cccc(C2(N3CCN(c4cccc(OC)n4)CC3)C3CC(C)CC32)c1` (stereo unspecified), greater than 10 µM.

Turning to `CCOc1cccc(C2(N3CCN(c4ccc(Cl)nn4)CC3)C3CC(C)CC32)c1` (stereo unspecified), in data set [7], the IC50 is greater than 10 µM. Still for that read-out and setting: next, `CCOc1cccc(C2(N3CCN(c4ncncn4)CC3)C3CC(C)CC32)c1` (stereo unspecified): 4.27 µM. Same read-out and setting: next, `CCOc1cccc(C2(N3CCN(c4ccncc4)CC3)C3CC(C)CC32)c1` (stereo unspecified): greater than 10 µM; `CCOc1cccc(C2(N3CCNCC3)C3CC(C)CC32)c1` (stereo unspecified): greater than 10 µM. `CCOc1cccc(C2(N3CCN(c4ccccc4)CC3)C3CC(C)CC32)c1` (stereo unspecified) came in with an IC50 in data set [7] of 0.062 µM.

`CCOc1cccc(C2(N3CCN(c4cncnc4)CC3)C3CC(C)CC32)c1` (stereo unspecified): the IC50 in data set [7] was 5.03 µM. The molecule `CCOc1cccc(C2(N3CCN(Cc4ccccc4)CC3)C3CC(C)CC32)c1` (stereo unspecified) came in with an IC50 in data set [7] greater than 10 µM.

For `CCOc1cccc(C2(N3CCN(c4cccnn4)CC3)C3CC(C)CC32)c1` (stereo unspecified), the IC50 in data set [7] is 4.38 µM. `CCOc1cccc(C2(N3CCN(c4ncccn4)CC3)C3CC(C)CC32)c1` (stereo unspecified) showed a solubility in data set [5] of 10000 µg/mL (≈ 26.4 mM). This molecule also came in with a half-maximal inhibitory concentration (IC50) in data set [7] of 0.054 µM.
